# Experimental data taken from US20260041707A1, “GASTROINTESTINAL PROTECTANT COMPOSITION” (BIOIBERICA, S.A.U., priority 2022, published 2026).
# How the values were obtained:
# [1] = test system: indomethacin-induced gastric irritation; test: Rat model of indomethacin-induced gastric irritation; format: in vivo, Sprague-Dawley rats
# Experimental: Forty-five Sprague-Dawley rats (8-9 weeks-old, 227.6±6.30 g) were divided in three groups (P1, P2 and P3; n=9 each) to receive orally 0.5 mL/rat of the test treatments. Two control groups were studied as well. […] 15 minutes after the administration of the treatment, all animals were challenged with an oral administration of indomethacin (12.5 mg/kg) and sacrificed 4 hours later. Gastric mucosal injury was examined at a macroscopical and microscopical level. Macroscopic lesions were evaluated with Image J software. Microscopically, submucosal edema and microvascular injury were scored in H&E-stained preparations (Hematoxylin&Eosin-stained preparations). Measurements were blinded and performed by two independent observers and an inter-observer mean was calculated.
# human patients = settings: humans; cited from earlier work
substance,measurement,setting,value
Sucrose octasulfate-aluminum complex [sucralfate],"microvascular injury evaluation (score, mean±SEM)","[1]; H&E-stained fundic sections, Placebo 1.53±0.077, significant vs Placebo",0.94±0.123
same,histological sections of the fundic stomach (findings),"[1]; microscopic evaluation, H&E-stained fundic sections",less severe lesions
same,percentage of hemorrhagic area related to the total gastric area (mean±SEM),"[1]; oral 0.5 mL/rat 15 min before oral indomethacin 12.5 mg/kg, sacrificed 4 hours later, Placebo 1.37±0.260%, p<0.05 vs Placebo",0.41±0.154%
same,hemorrhagic area (mean±SEM),"[1]; oral 0.5 mL/rat 15 min before oral indomethacin 12.5 mg/kg, sacrificed 4 hours later, Placebo 13.05±2.700, p<0.05 vs Placebo",4.28±1.495 mm^2
same,"other adverse effects (xerostomia, nausea, vomiting, headache, urticaria, rashes), incidence in patients",human patients,0-5%
